Data taken from patent publication US9144241B2, “Synergistic pesticidal compositions and related methods” (Dow AgroSciences LLC, priority 2013, dated 2015).

Tested on: diamondback moth, Plutella xylostella
Experiment: Diamondback moth bioassay on track-sprayed cabbage plants/leaf discs; synergy by Colby's equation
Type: in vivo
Conditions: single active, second instar larvae, 400 L/Ha spray
Excerpt: The method described in Colby S. R., “Calculating Synergistic and Antagonistic Responses of Herbicide Combinations,” Weeds, 1967, 15, 20-22 was used to determine an existence of synergic effect between the acetyl CoA carboxylase inhibitor compound and the pesticide (I), (II), or any agriculturally acceptable salt thereof in the formulated pesticidal composition.
Three second instar diamondback moth, Plutella xylostella, were infested onto each leaf disc. […] The “Colby's Expected Action” was calculated using Colby's equation as discussed previously.
Three second instar diamondback moth, Plutella xylostella, were infested onto each leaf disc.
The percent control may be determined some time after treatment.

## CCN(C(=O)CC[S+]([O-])CCC(F)(F)F)c1cn(-c2cccnc2)nc1Cl (centres unmarked) [Compound II, N-(3-chloro-1-(pyridin-3-yl)-1H-pyrazol-4-yl)-N-ethyl-3-((3,3,3-trifluoropropyl)sulfinyl)propanamide]
Dose rate 0.000625 weight %
  % Control Three Days After Treatment: 0%

## CCOC(=O)OC1=C(c2cc(C)ccc2C)C(=O)N[C@]12CC[C@@H](OC)CC2 [Spirotetramat, cis-3-(2,5-dimethylphenyl)-8-methoxy-2-oxo-1-azaspiro[4.5]dec-3-en-4-yl ethylcarbonate, reference compound]
Dose rate 0.0015625 weight %
  % Control Three Days After Treatment: 0%
Dose rate 0.0015625 weight %, listed as spirotetramat
  % Control Three Days After Treatment: no activity

## CCN(C(=O)CCSCCC(F)(F)F)c1cn(-c2cccnc2)nc1Cl [Compound I, N-(3-chloro-1-(pyridin-3-yl)-1H-pyrazol-4-yl)-N-ethyl-3-((3,3,3-trifluoropropyl)thio) propanamide]
Dose rate 0.000625 weight %
  % Control Three Days After Treatment: 0%
Dose rate 0.0025 weight %
  % Control Three Days After Treatment: no activity
